In patent US5491129A, “Synthetic peptides derived from vitronectin and pharmaceutical compositions comprising them” (Yeda Research and Development Co. Ltd., priority 1992, dated 1996):
Where a SMILES comes first, the peptide text is derived from it. Where no end group is shown, it is not given here.

What was measured:
[1] = target: T1, PAI-1 (Homo sapiens, UniProt P05121); test: Competition ELISA: binding of vitronectin onto immobilized activated PAI-1; design: purchased American Diagnostica, New York; settings: for level of inhibition achieved: FIG. 7, vitronectin 0.5 μg/ml, increasing peptide concentrations
T1 sequence (P05121 24-402): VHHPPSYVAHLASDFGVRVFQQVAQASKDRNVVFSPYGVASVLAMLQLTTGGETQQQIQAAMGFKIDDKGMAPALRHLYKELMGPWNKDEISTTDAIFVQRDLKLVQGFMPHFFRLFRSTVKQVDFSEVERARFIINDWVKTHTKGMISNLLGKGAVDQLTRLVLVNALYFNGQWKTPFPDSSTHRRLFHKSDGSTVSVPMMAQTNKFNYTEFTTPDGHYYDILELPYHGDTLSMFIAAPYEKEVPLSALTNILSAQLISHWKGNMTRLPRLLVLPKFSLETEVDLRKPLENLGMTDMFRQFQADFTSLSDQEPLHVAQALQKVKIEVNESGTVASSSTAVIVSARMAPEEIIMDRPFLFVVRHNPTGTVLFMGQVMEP
Description: Protein concentration was determined by the method described by Bradford, 1976. The binding of vitronectin to immobilized PAI-1 was conducted as described by Salonen et al., 1989. The activation of PAI-1 by sodium dodecylsulfate was carried out as described by Katagiri et al., 1988. Amino acid sequencing was performed with an Applied Biosystem 475A sequencer.
Each of the synthetic peptides shown in Scheme I and each of the peptides containing amino acids with a D configuration (BP7, BP8 and BP14) was tested by a competition ELISA assay for its ability to inhibit the binding of vitronectin to immobilized activated PAI-1. The first screening (FIGS. 3A-3D) was carried out with an identical molar concentration (25 μM) of the peptides. In view of a possible variability in such tests (mainly due to some variability in the activated PAI-1 coating of the plates), a control of vitronectin alone was run alongside in each plate for reference.
The various synthetic peptides (all 50 μM) were dissolved in 50 μl of a buffer composed of PBS, Tween 20 (0.01%), polyethylene-glycol (average M.W. 8 kDa) (4% w/v). Each of the samples was added to a microtiter well coated with SDS-activated PAI, prepared as described by Katagiri et al., 1988. After an incubation of 30 min at 22° C., aliquots (50 μl) of a vitronectin solution (at various concentrations) in the same buffer were added to each well. This was followed by an incubation for 2 hrs at 37° C. The amount of bound vitronectin was determined with specific rabbit anti-human Vn antibodies (1:1000 dilution), followed by a β-galactosidase-linked protein A and using o-nitrophenyl-β-D-galactopyranoside (ONPG) as a substrate. The enzymatic reaction was allowed to proceed and the absorbance at 405+490 nm was measured. Each point in the graphs represents the mean of triplicate determinations. […]

[2] = target: T1, PAI-1; test: Release of PAI-1 activity by endothelial cells in culture; format: cell-based; settings: human endothelial cell system, 6 hours, control = 100%
Description: PAI-1 is determined in the supernatant of HUVEC cells according to the method of Chmielewska et al., 1983. Briefly, cells are cultured in semiconfluent way with or without ECM. The culture medium is changed for Hank's balanced salt solution with 2% FCS and the tested substances with or without added plasmin (5 μg/ml) are diluted in this buffer and incubated with the cells for 6 hours. Samples from the cell supernatant are assayed for the PAI-1 activity.
For the PAI-1 assay, the cell supernatant is incubated with a fixed amount of tPA (40 U/ml) and the residual activity of the tPA is determined by a substrate composed of plasminogen (0.1μg/ml), chromogenic substrate (S-2251) and stimulator (Kabi, Sweden). After incubation with the substrate, O.D. is measured at 405 run and the amount of the inhibitor is calculated from calibration curve. PAI-1 antigen may also be determined with commercial kits.

Molecule: C[C@H](NC(=O)[C@H](CCCNC(=N)N)NC(=O)[C@H](CO)NC(=O)[C@@H]1CCCN1C(=O)[C@H](CCCNC(=N)N)NC(=O)[C@H](CCCNC(=N)N)NC(=O)[C@H](CO)NC(=O)[C@H](CC(N)=O)NC(=O)[C@H](CCC(N)=O)NC(=O)[C@H](CC(N)=O)NC(=O)[C@H](CCCNC(=N)N)NC(=O)CNC(=O)[C@H](CCCNC(=N)N)NC(=O)[C@H](CO)NC(=O)[C@H](Cc1c[nH]cn1)NC(=O)CNC(=O)[C@H](CCCNC(=N)N)NC(=O)[C@H](CCC(N)=O)NC(=O)[C@@H](N)CO)C(=O)O [BP4] (H-SQRGHSRGRNQNSRRPSRA-OH)
- level of inhibition achieved [1]: approximately 65%
- PAI-1 activity increase over control at 10 µM ([2]; 1 × 10^-5 M, read-out: PAI activity % above control (mean)): 29%
- PAI-1 activity increase over control at 1 µM ([2]; 1 × 10^-6 M, read-out: PAI activity % above control (mean)): 47%
- PAI-1 activity increase over control at 0.1 µM ([2]; 1 × 10^-7 M, read-out: PAI activity % above control (mean)): 0%
- PAI-1 activity increase over control at 0.33 µM ([2]; 3.3 × 10^-7 M, read-out: PAI activity % above control (mean)): 17%

Molecule: N=C(N)NCCC[C@H](NC(=O)CNC(=O)[C@H](CCCNC(=N)N)NC(=O)[C@H](CO)NC(=O)[C@H](Cc1c[nH]cn1)NC(=O)CNC(=O)[C@H](CCCNC(=N)N)NC(=O)[C@H](CCC(N)=O)NC(=O)[C@H](CO)NC(=O)[C@H](CCCNC(=N)N)NC(=O)[C@H](Cc1ccc(O)cc1)NC(=O)CNC(=O)[C@@H](N)CCCCN)C(=O)O [BP5] (H-KGYRSQRGHSRGR-OH)
- level of inhibition achieved [1]: approximately 65%

Molecule: N=C(N)NCCC[C@H](NC(=O)[C@H](Cc1ccc(O)cc1)NC(=O)CNC(=O)[C@H](CCCCN)NC(=O)[C@H](CCCNC(=N)N)NC(=O)[C@H](CC(N)=O)NC(=O)[C@H](CCCNC(=N)N)NC(=O)[C@H](Cc1c[nH]cn1)NC(=O)[C@H](CCCNC(=N)N)NC(=O)[C@H](Cc1ccccc1)NC(=O)[C@H](CCCNC(=N)N)NC(=O)[C@H](CCC(N)=O)NC(=O)[C@H](CCCCN)NC(=O)[C@@H](N)CCCCN)C(=O)N[C@@H](CO)C(=O)N[C@@H](CCC(N)=O)C(=O)O [BP6] (H-KKQRFRHRNRKGYRSQ-OH)
- level of inhibition achieved [1]: approximately 65%
- PAI-1 activity decrease below control at 10 µM ([2]; 1 × 10^-5 M): 19.5%
- PAI-1 activity decrease below control at 1 µM ([2]; 1 × 10^-6 M): 36.5%
- PAI-1 activity decrease below control at 0.1 µM ([2]; 1 × 10^-7 M): 19%
- PAI-1 activity decrease below control at 0.01 µM ([2]; 1 × 10^-8 M): 19%
- PAI-1 activity decrease below control at 0.33 µM ([2]; 3.3 × 10^-7 M): 39%

Molecule: BP7: same sequence as BP6 (K348-Q363) but the underlined residues in Scheme II have D configuration (KKQRFRHRNRKGYRSQ; also: some residues are D-form, positions not given here (underlining not shown))
- binding to immobilized PAI-1 (effect on vitronectin binding) ([1]; D-configuration peptides, 1-10 μM, FIG. 8): bind to immobilized PAI-1
